Test results from paper PMC8234462, “Novel Cyclophilin Inhibitor Decreases Cell Proliferation and Tumor Growth in Models of Hepatocellular Carcinoma” (Cancers, 2021).

Assays:
PHA-stimulated PBMCs = test: Cytotoxicity, CellTiter Glo; assay type: cell-based; settings: Homo sapiens, PBMC, 72 h, 3 days of treatment, read-out: IC50 (50% reduction in cell viability)
Protocol: (§1) The evaluation of the off-target effects of NV651 was performed by ImQuest BioSciences Inc. (Frederick, MD, USA) by analyzing the cytotoxicity in a panel of primary cells. NV651 was evaluated at a concentration of 30 µM and five serial half-logarithmic dilutions in triplicate. The positive control compounds for each cell type were purchased from Sigma-Aldrich (St. Louis, MO, USA) and were as follows:
(§2) Human unstimulated or PHA-P-stimulated PBMCs were isolated by Ficoll hypaque centrifugation from whole blood and resuspended in a fresh tissue culture medium containing IL-2. Cells were seeded at a concentration of 5 × 10^5 /mL in a 96-well plate followed by NV651 treatment in triplicate for 3 days. Cell viability was measured with CellTiter Glo (Promega, Madison, WI, USA).
(§3) CellTiter Glo was performed to evaluate cell viability. CellTiter Glo Luminescent Cell Viability Assay (Promega, Madison, WI, USA) was performed according to the manufacturer’s instructions.

Unstimulated PBMCs = test: Cytotoxicity, CellTiter Glo; assay type: cell-based; settings: Homo sapiens, PBMC, 72 h, 3 days of treatment, read-out: IC50 (50% reduction in cell viability)
Protocol: as §1, §2, §3

HEP3B2.1-7-Luc = test: Cell proliferation assay: Acumen; assay type: cell-based; settings: Homo sapiens, 168 h, 7 days, read-out: Abs IC50 growth inhibition
Protocol: (§4) Compound screening and comparison of the antiproliferative effect of NV651 and sorafenib were performed by Shanghai ChemPartner Co., Ltd. (Shanghai, China). Cells were seeded in a 96-well plate at the following concentrations: LIXC-003 400 cells/well, LIXC-004 1000 cells/well, LIXC-086 5000 cells/well, LIXC-066 1250 cells/well, LIXC-012 2000 cells/well, LIXC-006 1250 cells/well, HEPG2 1000 cells/well, HUH7 2000 cells/well and Hep3B2.1-7-Luc 1000 cells/well. Cells were treated with either sorafenib or NV651 at 0.004, 0.011, 0.034, 0.103, 0.309, 0.926, 2.778, 8.333, 25 µM or an equivalent volume with DMSO.
(§5) After 7 days, cells were trypsinized and collected. Fifty microliters of cell suspension were added to 50 µL of 2-µM Calcein AM (Invitrogen, Cat# C3099, Waltham, MA, USA) diluted in HBSS and placed in a black-walled 96-well plate. The plate was left for 30 min at room temperature, followed by a scan with Acumen eX3.
(§6) Growth inhibition for direct cell counting (%) by Acumen was calculated as:(1) 100−100∗Experimental count−Blank/DMSO count −Blank

HEPG2 = test: Cell proliferation assay: Acumen; assay type: cell-based; settings: Homo sapiens, 168 h, 7 days, read-out: Abs IC50 growth inhibition
Protocol: as §4, §5, §6

HUH7 [1] = test: Cell proliferation assay: Acumen; assay type: cell-based; settings: Homo sapiens, Huh-7, 168 h, 7 days, read-out: Abs IC50 growth inhibition
Protocol: as §4, §5, §6

LIXC-003 = test: Cell proliferation assay: Acumen; assay type: cell-based; settings: Homo sapiens, 168 h, 7 days, read-out: Abs IC50 growth inhibition
Protocol: as §4, §5, §6

LIXC-004 = test: Cell proliferation assay: Acumen; assay type: cell-based; settings: Homo sapiens, 168 h, 7 days, read-out: Abs IC50 growth inhibition
Protocol: as §4, §5, §6

LIXC-006 = test: Cell proliferation assay: Acumen; assay type: cell-based; settings: Homo sapiens, 168 h, 7 days, read-out: Abs IC50 growth inhibition
Protocol: as §4, §5, §6

LIXC-012 = test: Cell proliferation assay: Acumen; assay type: cell-based; settings: Homo sapiens, 168 h, 7 days, read-out: Abs IC50 growth inhibition
Protocol: as §4, §5, §6

LIXC-066 = test: Cell proliferation assay: Acumen; assay type: cell-based; settings: Homo sapiens, 168 h, 7 days, read-out: Abs IC50 growth inhibition
Protocol: as §4, §5, §6

LIXC-086 = test: Cell proliferation assay: Acumen; assay type: cell-based; settings: Homo sapiens, 168 h, 7 days, read-out: Abs IC50 growth inhibition
Protocol: as §4, §5, §6

HUH7 [2] = test: Mitotic quantification by immunofluorescence; assay type: cell-based, human; settings: 10 or 100 nM, 48 h
Protocol: HUH7 cells were seeded at a concentration of 4.5 × 10^4 cells/well in a 6-well plate containing coverslips, followed by the treatment of NV651 at 10 or 100 nM or the equivalent volume in DMSO. After 48 h, samples were fixed with 4% PFA (Histolab, Cat# 02176, Gothenburg, Sweden) and permeabilized with 0.1% Triton x-100 (Sigma-Aldrich, Cat# X100-500ML, St. Louis, MO, USA) diluted in PBS. Samples were stained with 1-µg/mL of rat anti-tubulin (Abcam, Cat# ab6161, Cambridge, UK) for one hour at room temperature. Lastly, DAPI and secondary antibody goat anti-rat IgG AF546 conjugate (Invitrogen, Cat# A11081, Waltham, MA, USA) were added. Coverslips were mounted on glass slides adding fluorescent mounting media (Dako, Agilent, Santa Clara, CA, USA). Thirteen pictures at 10× were taken with a Zeiss Confocal microscope and quantified for the number of mitotic cells in relation to the total number of cells with ImageJ.

[3] = Body weight during xenograft treatment; assay type: in vivo, NMRI nude mice; settings: 10 mg/kg daily subcutaneous; 3 weeks
Protocol: HEPG2 cells were transduced with RediFect Red-FLuc-GFP (Perkin Elmer, Cat# CLS960003, Waltham, MA, USA) with a MOI = 3 and sorted for GFP^+ in a FACSAria III (BD Biosciences, Franklin Lakes, NJ, USA). GFP^+Luciferase (Luc)^+ HEPG2 cells were confirmed to be negative for mycoplasma with the MycoAlert^TM Mycoplasma Detection Kit (Lonza, Cat# LT07-418, Basel, Switzerland). Cell viability and a percentage of the GFP^+ cells were analyzed before the start of the in vivo experiment with a BD FACSverse cytometer (BD Biosciences, Franklin Lakes, NJ, USA). Twenty NMRI nude female mice (6–8 weeks old) were injected in one flank with 1 million cells suspended in PBS with 50% Matrigel (Corning, Cat# 354230, Corning, NY, USA) in a total volume of 200 µL. […]
Tumor growth was assessed with an in vivo imaging system (IVIS) one week after the injection of the cells. […] Body weights were measured at time 0 of the treatment and twice a week after the beginning of the treatment. […] Tumor growth was analyzed for up to 3 weeks. BLI signal intensity was quantified in total flux (photons/s) after deducting the average background signal from the measurement region of interest (ROI) around the tumor area using live image analysis software (PerkinElmer, Waltham, MA, USA).

In the case of CC(=O)CCC1C(=O)NC(C(C)C)C(=O)NC(Cc2cc(O)cc(F)c2)C(=O)N2CCCC(N2)C(=O)OC(C(C)=CC=CC(=O)OC(C)(C)C)CC=CC=CC(O)C(C)C1O (stereo not shown) [NV651], the IC50 (PHA-stimulated PBMCs) is reported as greater than 30 µM, the IC50 (Unstimulated PBMCs) is reported as greater than 30 µM and the IC50 (HEP3B2.1-7-Luc) is reported as 9 nM. For the same molecule, the IC50 (HEPG2) was 6.3 nM, the IC50 (HUH7 [1]) was 3 nM and the IC50 (LIXC-003) was 9 nM. It also gave an IC50 (LIXC-004) of 4 nM, an IC50 (LIXC-006) of 8 nM and an IC50 (LIXC-012) of 94 nM. The IC50 (LIXC-066) was 169 nM, the IC50 (LIXC-086) was 656 nM and the “number of mitotic counts” value (HUH7 [2]) was “increase in the number of mitotic counts”. For the same molecule, the body weight [3] was “no significant changes”.
